# Data from ChEMBL document CHEMBL1817663, “A synthetic antimicrobial peptidomimetic (LTX 109): stereochemical impact on membrane disruption” (J Med Chem, 2011).
# Experiments:
# [1] = system: Pseudomonas aeruginosa; test: Antibacterial activity against Pseudomonas aeruginosa ATCC 27853; format: functional
# [2] = Toxicity in human erythrocytes assessed as hemolytic activity; format: cell-based, Erythrocyte; conditions: read-out: HD50 (the source's name)
# [3] = system: Staphylococcus aureus; test: Antibacterial activity against Staphylococcus aureus ATCC 25923; format: functional
# [4] = system: Escherichia coli; test: Antibacterial activity against Escherichia coli ATCC 25922; format: functional
SMILES,MIC [1],HC50 [2],MIC [3],MIC [4]
CC(C)(C)c1cc(C(C)(C)C)c2[nH]c(C(C)(C)C)c(C[C@@H](NC(=O)[C@H](N)CCCNC(=N)N)C(=O)N[C@H](CCCNC(=N)N)C(=O)NCCc3ccccc3)c2c1,8 µg/mL,120 µg/mL,3 µg/mL,3 µg/mL
CC(C)(C)c1cc(C(C)(C)C)c2[nH]c(C(C)(C)C)c(C[C@H](NC(=O)[C@H](N)CCCNC(=N)N)C(=O)N[C@@H](CCCNC(=N)N)C(=O)NCCc3ccccc3)c2c1,10 µg/mL,175 µg/mL,2 µg/mL,3 µg/mL
CC(C)(C)c1cc(C(C)(C)C)c2[nH]c(C(C)(C)C)c(C[C@@H](NC(=O)[C@@H](N)CCCNC(=N)N)C(=O)N[C@H](CCCNC(=N)N)C(=O)NCCc3ccccc3)c2c1,8 µg/mL,135 µg/mL,2 µg/mL,4 µg/mL
CC(C)(C)c1cc(C(C)(C)C)c2[nH]c(C(C)(C)C)c(C[C@@H](NC(=O)[C@@H](N)CCCNC(=N)N)C(=O)N[C@@H](CCCNC(=N)N)C(=O)NCCc3ccccc3)c2c1,30 µg/mL,510 µg/mL,3 µg/mL,9 µg/mL
CC(C)(C)c1cc(C(C)(C)C)c2[nH]c(C(C)(C)C)c(C[C@H](NC(=O)[C@H](N)CCCNC(=N)N)C(=O)N[C@H](CCCNC(=N)N)C(=O)NCCc3ccccc3)c2c1,50 µg/mL,600 µg/mL,3 µg/mL,7 µg/mL
CC(C)(C)c1cc(C(C)(C)C)c2[nH]c(C(C)(C)C)c(C[C@H](NC(=O)[C@@H](N)CCCNC(=N)N)C(=O)N[C@H](CCCNC(=N)N)C(=O)NCCc3ccccc3)c2c1,50 µg/mL,535 µg/mL,3 µg/mL,10 µg/mL
CC(C)(C)c1cc(C(C)(C)C)c2[nH]c(C(C)(C)C)c(C[C@@H](NC(=O)[C@H](N)CCCNC(=N)N)C(=O)N[C@@H](CCCNC(=N)N)C(=O)NCCc3ccccc3)c2c1,50 µg/mL,605 µg/mL,4 µg/mL,10 µg/mL
CC(C)(C)c1cc(C(C)(C)C)c2[nH]c(C(C)(C)C)c(C[C@H](NC(=O)[C@@H](N)CCCNC(=N)N)C(=O)N[C@@H](CCCNC(=N)N)C(=O)NCCc3ccccc3)c2c1 [LTX-109],8 µg/mL,175 µg/mL,2 µg/mL,3 µg/mL
